In patent US20160192643A1, “NEW ANTIFUNGAL COMPOSITION FOR TREATMENT OF SOIL” (CERADIS B.V., priority 2013, published 2016):

Experiments:
Pythium aphanidermatum = test: Polyelectrolyte formulation against Pythium aphanidermatum in Chrysanthemum soil
Protocol: Soil was artificially infected with Pythium aphanidermatum spores using well known methods. Crates of 40×60 cm each were filled with infected soil. Transplants of Chrysanthemum were planted after the artificial infection. Each plot consisted of 2 crates with each 15 plants (30 plants per plot). The trial was conducted in four replicates. A single application was done just after transplant by spraying the AllyloCal polyelectrolyte complex over the crop at 1000 l/ha. Immediately after the treatment, the products were rinsed in the soil with 3 liter of water per m^2. The applied concentration in the spray suspension was 1000 ppm of natamycin. After 10 days the numbers of healthy, diseased and dead plants were counted.
At the end of the trial, after 44 days, the average plant height, the average plant weight and the rooting (in percentage of the bottom of the crates covered with roots) were measured.

[1] = neutral aqueous systems; cited from earlier work
Agaricus bisporus = test: Polyelectrolyte formulation applied on mushroom growth substrate: total yield of mushrooms; assay type: in vivo; details: natamycin 500 ppm where present
Protocol: Naturally contaminated Phase III compost inoculated with mushroom spawn of the edible mushroom species Agaricus bisporus prepared using well known methods was obtained from a local Dutch grower
Formulations described in Table 3 were generated as described in Example 1 for CitoCal.
Boxes with a size of 30 (1)×25 (b)×10 (h) cm were filled with the Phase III compost and incubated for 4 days at a temperature of 21° C. in the dark. After this incubation period, the white mushroom mycelium was visible on the surface of the compost. The compost was covered with 3 cm of casing prepared using well known methods after which 30 ml of the different formulations was sprayed onto the casing. Each formulation was examined in duplicate. The next day, 200 ml of water was added to each box after which the boxes were incubated for 7 days at 21° C. in the dark allowing the mycelium to grow to the surface of the casing. After this period the white mushroom mycelium was visible at the surface of the casing. The boxes were further incubated in the dark at a temperature of 18° C.
Dehydration of the casing surface was prevented by spraying sufficient and equal amounts of water (circa 10 ml) onto the casing in each box every few days using well known methods. […] During a period of 46 days mushrooms were harvested every day; the total yield was determined by measuring the weight of the mushrooms.

most fungi = details: cited from earlier work
[2] = 10 days after infection, n = 120, single spray at 1000 l/ha, 1000 ppm natamycin
[3] = compared with the untreated plants (n = 120), after 44 days
[4] = end of the trial, after 44 days

In the case of C[C@@H]1C/C=C/C=C/C=C/C=C/[C@H](O[C@@H]2O[C@H](C)[C@@H](O)[C@H](N)[C@@H]2O)C[C@@H]2O[C@](O)(C[C@@H](O)C[C@H]3O[C@@H]3/C=C/C(=O)O1)C[C@H](O)[C@H]2C(=O)O [Natamycin, natamycin], the “Dead plants (%)” value (Pythium aphanidermatum; [2]) is reported as 6%, the “Diseased plants (%)” value (Pythium aphanidermatum; [2]) is reported as 34% and the “Healthy plants (%)” value (Pythium aphanidermatum; [2]) is reported as 60%. For the same molecule, the “Percentage improvement of plant height (%)” value (Pythium aphanidermatum; [3]) was 5.5%, the “Percentage improvement of plant rooting (%)” value (Pythium aphanidermatum; [3]) was 2.3% and the “Percentage improvement of plant weight (%)” value (Pythium aphanidermatum; [3]) was 3.9%. For the same molecule, the average plant height (Pythium aphanidermatum; [4]) was 59.9 cm, the average plant weight (Pythium aphanidermatum; [4]) was 43.1 grams and the solubility [1] was 30-40 ppm. The “Total yield (gram/2 boxes)” value (Agaricus bisporus; total mushroom weight after 46 days of incubation, 30 ml formulation sprayed onto casing, naturally contaminated Phase III compost) was 359 gram/2 boxes, the “Yield increase (%)” value (Agaricus bisporus; versus Control, 46 days of incubation) was −1.4% and the “Minimal Inhibitory Concentration (MIC)” value (most fungi) was “less than 10 ppm”.
